The target of one assay is thymidylate synthetase (Mus musculus, UniProt P07607). Description: In vivo thymidylate synthetase activity. Here is the method:
CF1 male mice (~30 g) were implanted with 2×10^6 Ehrlich ascites tumor cells, intraperitoneally on Day 0. Compound I was suspended by homogenation in 0.05% polysorbate.80-water and administered intraperitoneally at 10 and 20 mg/kg for 9 days to determine its effectiveness for inhibition of tumor growth. Mice were sacrificed on Day 10, and the ascites fluid was collected from the peritoneal cavity. The volume and ascrit (packed cell volume) were determined for each animal and the percent inhibition of tumor growth was calculated. For the metabolic studies, mice were treated on Days 8 and 9 with 10 mg/kg of Compound I, intraperitoneally. […]
Carbamyl phosphate synthetase activity was determined using the reaction medium of Kalman et al [Am. […] Citrulline formed from ornithine was measured at 490 nm by the method of Archibald [J. Biol. Chem., 156, 121 (1944)]. […] The ^14 CO2 generated in 15 min was trapped in 1M KOH and counted. Thymidylate synthetase activity was determined using a post-mitochondrial supernatant (9000 g×10 min) and 5 μCi of 5-^3 H-deoxyuridine monophosphate (14 Ci/mmol) according to the method of Kampf et al [ J. Med. Chem., 19, 903 (1976)]. ^14 C-Formate incorporation into purines was determined by the method of Spassova et al [Biochem. Pharmacol., 25, 923 (1976)] using 0.5 μCi of ^14 C-formic acid (52.0 mCi/mmol). […] The Rf value for xanthine monophosphate was scraped and counted. […]

A further assay deals with Holtzman male rats. The experiment in a line: 3H-Cholesterol distribution in rats. The class given is in vivo, rat. Particulars: for Orally administered 3H-Cholesterol: 14 days 10 mg/Kg/Day, Treated. The protocol:
Holtzman male rats (~350 g) were administered the test agent for 14 days orally. On day 13, 10 μCi of ^3 H-cholesterol (40.7 mCi/mmol) was administered intraperitoneally in mice and orally in rats, and feces were collected for the next 24 hr. Twenty-four hours after cholesterol administration, the major organs were excised and samples of blood, chyme and urine were obtained. Homogenates (10%) were prepared of the tissues which were combusted and counted. Some tissue samples were plated on Whatman #1 filter paper, dried and digested for 24 hr in base at 40° C. and counted. Results were expressed as dpm/mg of wet tissue and dpm/per total organ.

Assay [1] deals with deoxyribonucleic acid synthesis of Ehrlich ascites cells. Description: In vitro whole cell incorporation: deoxyribonucleic acid synthesis. The class given is cell-based, mouse. As to conditions: preliminary, 60 min, read-out: ID50, inhibition of deoxyribonucleic acid synthesis. The protocol: CF1 male mice (~30 g) were implanted with 2×10^6 Ehrlich ascites tumor cells, intraperitoneally on Day 0. Compound I was suspended by homogenation in 0.05% polysorbate.80-water and administered intraperitoneally at 10 and 20 mg/kg for 9 days to determine its effectiveness for inhibition of tumor growth. Mice were sacrificed on Day 10, and the ascites fluid was collected from the peritoneal cavity. The volume and ascrit (packed cell volume) were determined for each animal and the percent inhibition of tumor growth was calculated. For the metabolic studies, mice were treated on Days 8 and 9 with 10 mg/kg of Compound I, intraperitoneally. The animal was sacrificed on Day 10 and the ascites fluid harvested. The in vitro metabolic studies were performed at […] final concentration of Compound I.
In vitro incorporation of ^3 H-thymidine, ^3 H-uridine, or ^3 H-leucine was determined using 10^6 Ehrlich ascites cells, 1 μCi labeled precursor, minimum essential medium and varying final concentrations of drug from 0.25-1.0 mM. The tubes were incubated at 37° C. for 60 min and inactivated by trichloroacetic acid. The acid insoluble labeled deoxyribonucleic acid was collected on GF/F glass filter discs and ribonucleic acid and protein were precipitated on nitrocellulose filters by vacuum suction. Results are expressed as dpm of incorporated precursor per hour per 10^6 cells.

thymidylate synthetase, sequence (P07607 whole entry): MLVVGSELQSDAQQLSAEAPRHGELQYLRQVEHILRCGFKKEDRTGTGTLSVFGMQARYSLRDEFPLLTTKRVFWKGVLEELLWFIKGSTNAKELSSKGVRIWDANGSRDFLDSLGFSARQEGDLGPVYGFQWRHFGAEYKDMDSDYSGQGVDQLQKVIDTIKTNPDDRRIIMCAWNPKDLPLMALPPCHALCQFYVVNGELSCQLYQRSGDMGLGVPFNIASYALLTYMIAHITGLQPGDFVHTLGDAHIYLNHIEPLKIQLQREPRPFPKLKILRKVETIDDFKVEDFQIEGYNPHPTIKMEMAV

For the substance “{Cu[(CH3)3 N.BH2 CO2 ]2.(CH3)3 N.BH2 COOH} [Compound I]”, the “Thymidylate synthetase activity suppressed” value on thymidylate synthetase stood at 5%. At thymidylate synthetase (10 mg/kg/day I.P. on Days 8 and 9), the Thymidylate synthetase activity is given as 102 ± 9 % Control. For the same substance, the “Orally administered 3H-Cholesterol” value with Holtzman male rats (rat Brain) is on record as 15,783 DPM/Total Organ; in the assay on Holtzman male rats (rat Chyme), 218,742 DPM/Total Organ; in the assay with Holtzman male rats (rat Feces) it was 294,644 DPM/Total Organ; with Holtzman male rats (rat Heart), 20,060 DPM/Total Organ; in the assay on Holtzman male rats (rat Kidney), 565 DPM/Total Organ; with Holtzman male rats (rat Large Intestine) it was 59,665 DPM/Total Organ. Besides, the “Orally administered 3H-Cholesterol” value is given as 27,695 DPM/Total Organ with Holtzman male rats (rat Liver); 17,106 DPM/Total Organ in the assay on Holtzman male rats (rat Lung); 16,514 DPM/Total Organ with Holtzman male rats (rat Small Intestine); 13,241 DPM/Total Organ in the assay with Holtzman male rats (rat Spleen); 33,901 DPM/Total Organ in the assay with Holtzman male rats (rat Stomach). The “3H-cholesterol reduced (dpm/organ vs control)” value in the assay on Holtzman male rats (rat brain) came to 46%; in the assay on Holtzman male rats (rat heart), 18%; with Holtzman male rats (rat kidney), 91%; in the assay on Holtzman male rats (rat liver), 42%. In addition, the “higher content of cholesterol” value in the assay with Holtzman male rats (rat chyme) was found to be 113%; in the assay with Holtzman male rats (rat large intestine), 27%; in the assay with Holtzman male rats (rat small intestine), 81%; in the assay on Holtzman male rats (rat stomach), 198%; with Holtzman male rats (rat urine), 336%. Besides, in assay [1], the IC50 stood at 940 µM.

The values above are taken from US4550186A, “Binuclear copper (II) carboxylates formed from amine-carboxyboranes” (Duke University, priority 1983, dated 1985).
